# Experimental data from PMC10244169, “Psychedelics promote plasticity by directly binding to BDNF receptor TrkB” (Nature Neuroscience, 2023).
# B1: TrkB TMD (transmembrane residues of human TrkB, T423-G466) (domain or fragment, UniProt Q16620 423-466, looked up)
# chain: TDKTGREHLSVYAVVVIASVVGFCLLVMLFLLKLARHSKFGMKG
# notes: human TrkB, transmembrane residues T423-G466, UniProt Q16620; 15N- or 15N,13C-labelled; Cloned by NdeI and HindIII into pGEMEX1
# Legend:
# TrkB [1] = molecular target: T1, TrkB (Rattus norvegicus, UniProt Q63604); test: biochemical; assay type: binding; details: for displacement of ^3H-LSD from TrkB: 1 nM to 10 µM of drug; for K (one phase exponential decay, best-fit) / Plateau (one phase exponential decay, best-fit) / Span (one phase exponential decay, best-fit): ext fig 1h
# T1 construct: expressed in transfected cells; host or cells: HEK293T
# T1 sequence (Q63604 32-821): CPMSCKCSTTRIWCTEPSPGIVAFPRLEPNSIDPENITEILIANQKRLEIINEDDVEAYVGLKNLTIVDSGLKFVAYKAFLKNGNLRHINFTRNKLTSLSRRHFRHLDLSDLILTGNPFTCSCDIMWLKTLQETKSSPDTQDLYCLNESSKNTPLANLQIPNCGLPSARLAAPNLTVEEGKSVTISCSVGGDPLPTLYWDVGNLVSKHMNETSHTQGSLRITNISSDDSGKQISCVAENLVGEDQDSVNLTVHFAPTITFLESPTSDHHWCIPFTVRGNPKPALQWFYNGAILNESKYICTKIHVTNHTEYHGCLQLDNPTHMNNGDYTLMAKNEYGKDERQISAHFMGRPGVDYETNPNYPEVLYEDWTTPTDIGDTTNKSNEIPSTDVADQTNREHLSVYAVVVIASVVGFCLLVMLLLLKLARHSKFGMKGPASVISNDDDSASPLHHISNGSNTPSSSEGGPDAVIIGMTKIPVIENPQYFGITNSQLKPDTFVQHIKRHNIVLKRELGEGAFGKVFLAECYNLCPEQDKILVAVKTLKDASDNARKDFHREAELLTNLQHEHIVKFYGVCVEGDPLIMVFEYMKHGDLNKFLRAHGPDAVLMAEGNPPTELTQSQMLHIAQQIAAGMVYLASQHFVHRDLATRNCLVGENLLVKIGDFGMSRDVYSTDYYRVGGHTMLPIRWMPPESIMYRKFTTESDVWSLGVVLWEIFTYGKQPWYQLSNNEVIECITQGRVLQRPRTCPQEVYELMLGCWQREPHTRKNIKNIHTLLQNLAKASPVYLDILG
# [2] = Supplementary Table 3 legend; source not stated; cited from earlier work
# TrkB [3] = molecular target: T1, TrkB; test: Competition binding with biotinylated R,R-HNK
# Method: Binding assays were performed as previously described with minor modifications. […] Samples from mouse embryo (E18) brains were also lysed, vortexed, sonicated and centrifuged for binding assays. Plates were then washed with PBS. […] For the competition binding assays with biotinylated R,R-HNK, the amino-biotinylation of R,R-HNK was performed using a commercial kit (Thermo Scientific, EZ-Link NHS-PEG4 Biotinylation Kit, 21455) and the reaction monitored by MS. A mixture of biotinylated R,R-HNK (10 µM) and unlabeled compounds (1 pM to 10 µM) in PBS was added to the 96-well plates containing the immunoprecipitated TrkB and incubated for 1 h at room temperature. […] Luminescence was determined via streptavidin conjugated with horseradish peroxidase (HRP; Thermo Fisher Scientific, 21126; 1:5,000, 1 h at room temperature) in reaction with the Pierce ECL substrate (Thermo Fisher Scientific, 32106). Luminescence from blank wells that contained all reagents but the sample lysates was used to determine nonspecific binding. To obtain the binding curves, results from binding assays were fitted to the equation of specific binding with Hill slope from GraphPad Prism 9.2. To calculate koff values, results were fitted to the equation of dissociation of one phase exponential decay from GraphPad Prism 9.2.
# [4] = test system: dendritic arbor complexity of neuronal cultures; set-up: method as in PMID 29898390; details: cultured neurons; cited from earlier work
# TrkB (WT) dimerization = molecular target: T2, TrkB (WT) dimerization (Rattus norvegicus, UniProt Q63604); test: Split-luciferase PCA of TrkB dimerization in N2a cells; assay type: cell-based; details: ketanserin 100 nM, M100907 100 nM or TrkB.FC 200 ng ml^−1, 10 min before
# T2 construct: expressed in transfected cells; host or cells: N2a
# T2 sequence (Q63604 32-821): as above
# T2 sequence (Q63604 32-821): as above
# Method: Ketanserin, M100907 and TRKB.FC were added to the media 10 min before treatment. The PCA method was performed as previously described[11],[75],[76]. Split humanized Gaussia princeps luciferase (hGLuc) was cloned on the C-terminus of the reporter proteins TrkB (WT and Y433F) and lipid raft Fyn. If the reporter proteins that carry complementary halves of the luciferase interact, the enzyme can refold in its functional conformation and, upon addition of its substrate, produce luminescence proportionally to the amount of reporter proteins interacting at a given time. N2a cells were seeded in 96-well plates with opaque walls and transparent bottom (PerkinElmer, ViewPlate 96). Cells were transfected with Lipofectamine 2000 according to the manufacturer’s instructions 24 h post-plating with the PCA pair plasmids: phGLuc(1C)-TrkB(WT) or the mutant phGLuc(1C)-TrkB(Y433F) and phGLuc(2 C)-TrkB(WT) for the dimerization experiments; phGLuc(1C)-lipid raft Fyn and phGLuc(2C)-TrkB(WT) or phGLuc(2C)-TrkB(Y433F) for the lipid raft localization experiments. Forty-eight hours post transfection, cells were treated (40 min, 37 °C) in phenol red-free Dulbecco’s modified Eagle medium without serum. […] The PCA signal was detected with the substrate for the luciferase, native coelenterazine, which was injected into each well directly in the plate reader at a final concentration of […].
# TrkB [5] = test: Western blot of TrkB protein expression in N2a cells; assay type: cell-based; details: WT and Y433F^+/−
# Method: In a separate set of experiments to examine the effect of 5-HT2A activation, M100907 (100 nM) was administered as a 10 min pretreatment and remained in the medium for the rest of the experiment. Next, cells were lysed and centrifuged. […] The co-immunoprecipitation was carried out as previously described[11],[23],[24] with minor modifications. Briefly, Magnetic Dynabeads Protein G (Invitrogen, 10004D) were coated with anti-TrkB antibody (R&D Systems, AF1494) at 200 ng of antibody per 1 µl of beads in rotation (2 h, 4 °C). Finally, lysates were mixed with the coated beads (100 µg of total protein per 15 µl of beads) and incubated in rotation (overnight, 4 °C).
# Proteins were separated according to their molecular weight by SDS–PAGE and transferred to a polyvinylidene fluoride membrane. Membranes were incubated with the following primary antibodies (all 1:1,000 in 3% BSA in TBS-T, overnight, 4 °C): anti-TrkB (R&D Systems, AF1494), anti-β-actin (Sigma-Aldrich, A1978), anti-phospho-mTOR (Cell Signaling Technology, 5536S), anti-phospho-p44/42 MAPK (Erk1/2) (Cell Signaling Technology, 9106S), anti-mTOR (Cell Signaling Technology, 2972S) and anti-p44/42 MAPK (Erk1/2) (Cell Signaling Technology, 9102S). […] Protein bands were visualized using enhanced chemiluminescent substrate (Thermo Scientific, 32132, ECL Plus) and imaged with a charge-coupled device camera (G:BOX, Syngene).
# [6] = test system: dendritic arbor complexity of neuronal cultures; test: Dendritogenesis (Sholl analysis) in neuronal cultures (WT and Y433F^+/−); assay type: cell-based, mouse; details: for e6e group mean (dendritogenesis, Sholl analysis): BDNF; for e6e Mean Diff. (Veh. minus BDNF): uncorrected Fisher's LSD
# Method: In a separate set of experiments to study the effects of extracellular BDNF and 5-HT2A activation, cultures were also pretreated for 10 min with TrkB.FC (200 ng ml^−1) or M100907 (100 nM), respectively. Similar to treatment with the psychedelics, TrkB.FC and M100907 pretreatments were administered in cumulative doses and remained in the medium for the rest of the experiment. At DIV7, neurons were pre-incubated for 1 h with […] MgCl2 to prevent excitotoxicity, then neurons were transfected for the heterologous expression of mCherry. To minimize any possible interference of the transfection protocol upon the drug effect, transfection was done in the morning while treatment with psychedelics was always added in the evening. Twenty-four hours after transfection, neurons were fixed with 4% PFA for 20 min at room temperature, washed in PBS-T, blocked for 30 min with 3% BSA in PBS-T and incubated with chicken anti-MAP2 (Abcam, ab5392; 1:5,000, 1 h, room temperature). Then, coverslips were washed in PBS-T and incubated with Alexa Fluor 647-conjugated antibody goat anti-chicken (Invitrogen, A-21449; 1:1,000, 1 h, room temperature). Next, coverslips were washed in PBS-T and MilliQ water, and mounted in Dako fluorescence mounting medium (Agilent, S302380-2). Ten optical sections with a Z-step of 1.3 μm were acquired using a Zeiss LSM 710 confocal microscope with a LCI Plan/Neofluar 25×/0.8 lmm Korr DIC M27 objective. In the mCherry channel, the center of the soma was manually assigned and the number of dendritic intersections at fixed distances (every 5 μm) from the soma was automatically counted using the Sholl analysis plugin of ImageJ.
# [7] = molecular target: the molecule itself; test: NMR titration; 1H,15N-HSQC spectra of TrkB TMD in DMPC/DHPC bicelles at various lipid-to-protein ratios, 40 °C, pH 6.0; monomer to dimer
# [8] = ext fig 1f, competition curve, n=5
molecule,measurement,setting,value
C=CCN1C[C@H](C(=O)N(CCCN(C)C)C(=O)NCC)C[C@@H]2c3cccc4[nH]cc(c34)C[C@H]21 [cabergoline],displacement of ^3H-LSD from TrkB,TrkB [1],fail to displace ^3H-LSD
same,"K (one phase exponential decay, best-fit)",TrkB [1],776405
same,"Plateau (one phase exponential decay, best-fit)",TrkB [1],113.3
same,"Span (one phase exponential decay, best-fit)",TrkB [1],-10.49
same,pKa,[2],6.22
CN1C[C@H](C(=O)N[C@]2(C)O[C@@]3(O)[C@@H]4CCCN4C(=O)[C@H](Cc4ccccc4)N3C2=O)C[C@@H]2c3cccc4[nH]cc(c34)C[C@H]21 [dihydroergotamine],displacement of ^3H-LSD from TrkB,TrkB [1],fail to displace ^3H-LSD
same,"K (one phase exponential decay, best-fit)",TrkB [1],5.40E+07
same,"Plateau (one phase exponential decay, best-fit)",TrkB [1],93.57
same,"Span (one phase exponential decay, best-fit)",TrkB [1],15.09
same,pKa,[2],6.75
"O=C(c1ccc(F)cc1)C1CCN(CCn2c(=O)[nH]c3ccccc3c2=O)CC1 [ketanserin, ketanserin (+)-tartrate]",displacement of ^3H-LSD from TrkB,TrkB [1],fail to displace LSD binding to TrkB
same,"Fit status, specific binding with Hill slope",TrkB [1]; ext fig 1f,Ambiguous
same,"Bmax (specific binding with Hill slope, best-fit)",TrkB [1]; [8],96.24
same,"h (Hill slope, best-fit)",TrkB [1]; [8],~ 0.3927
same,"displacement of biotinylated R,R-HNK from TrkB","TrkB [3]; biotinylated R,R-HNK 10 µM","not ketanserin, displace R,R-HNK binding to TrkB"
same,"K (one phase decay, best-fit)",TrkB [3]; ext fig 1g,1491612413
same,"Plateau (one phase decay, best-fit)",TrkB [3]; ext fig 1g,97.9
same,"Span (one phase decay, best-fit)",TrkB [3]; ext fig 1g,2.855
same,"Tau (one phase decay, best-fit)",TrkB [3]; ext fig 1g,6.70E-10
same,"Y0 (one phase decay, best-fit)",TrkB [3]; ext fig 1g,100.8
same,effect on LSD effects on dendritic arbor complexity,[4],prevent the effects of LSD on dendritic arbor complexity
same,effect of pretreatment on LSD- and BDNF-induced TrkB dimerization,TrkB (WT) dimerization,fails to prevent the effects of LSD and BDNF on TrkB dimerization
BDNF: Brain-derived neurotrophic factor,total TrkB expression,TrkB [5],No differences in total TrkB expression
same,"e6f Sholl profile, mean","[6]; WT + BDNF, distance from soma 10 µm",6.929
same,"e6f Sholl profile, mean","[6]; WT + BDNF, distance from soma 15 µm",9.643
same,"e6f Sholl profile, mean","[6]; WT + BDNF, distance from soma 20 µm",7.929
same,"e6f Sholl profile, mean","[6]; WT + BDNF, distance from soma 25 µm",7.929
same,"e6f Sholl profile, mean","[6]; WT + BDNF, distance from soma 30 µm",6
same,"e6f Sholl profile, mean","[6]; WT + BDNF, distance from soma 35 µm",4.5
same,"e6f Sholl profile, mean","[6]; WT + BDNF, distance from soma 40 µm",3.857
same,"e6f Sholl profile, mean","[6]; WT + BDNF, distance from soma 45 µm",3.571
same,"e6f Sholl profile, mean","[6]; WT + BDNF, distance from soma 50 µm",2.714
same,"e6f Sholl profile, mean","[6]; WT + BDNF, distance from soma 55 µm",2.429
same,"e6f Sholl profile, mean","[6]; WT + BDNF, distance from soma 60 µm",2.786
same,"e6f Sholl profile, mean","[6]; WT + BDNF, distance from soma 65 µm",2.643
same,"e6f Sholl profile, mean","[6]; WT + BDNF, distance from soma 70 µm",3.143
same,"e6f Sholl profile, mean","[6]; WT + BDNF, distance from soma 75 µm",2.929
same,"e6f Sholl profile, mean","[6]; WT + BDNF, distance from soma 80 µm",2.714
same,"e6f Sholl profile, mean","[6]; WT + BDNF, distance from soma 85 µm",2.786
same,"e6f Sholl profile, mean","[6]; WT + BDNF, distance from soma 90 µm",2.286
same,"e6f Sholl profile, mean","[6]; WT + BDNF, distance from soma 95 µm",1.857
same,"e6f Sholl profile, mean","[6]; WT + BDNF, distance from soma 100 µm",1.857
same,"e6e group mean (dendritogenesis, Sholl analysis)","[6]; WT neuronal cultures, n=14",78.5
same,e6e Mean Diff. (Veh. minus BDNF),[6]; WT:Veh. vs. WT:BDNF,-30.1
same,"e6f Sholl profile, mean","[6]; Y433F+/- + BDNF, distance from soma 10 µm",8.0625
same,"e6f Sholl profile, mean","[6]; Y433F+/- + BDNF, distance from soma 15 µm",9.4375
same,"e6f Sholl profile, mean","[6]; Y433F+/- + BDNF, distance from soma 20 µm",10.25
same,"e6f Sholl profile, mean","[6]; Y433F+/- + BDNF, distance from soma 25 µm",8.8125
same,"e6f Sholl profile, mean","[6]; Y433F+/- + BDNF, distance from soma 30 µm",8.1875
same,"e6f Sholl profile, mean","[6]; Y433F+/- + BDNF, distance from soma 35 µm",6.3125
same,"e6f Sholl profile, mean","[6]; Y433F+/- + BDNF, distance from soma 40 µm",5.375
same,"e6f Sholl profile, mean","[6]; Y433F+/- + BDNF, distance from soma 45 µm",5.1875
same,"e6f Sholl profile, mean","[6]; Y433F+/- + BDNF, distance from soma 50 µm",3.9375
same,"e6f Sholl profile, mean","[6]; Y433F+/- + BDNF, distance from soma 55 µm",3.6875
same,"e6f Sholl profile, mean","[6]; Y433F+/- + BDNF, distance from soma 60 µm",3.25
same,"e6f Sholl profile, mean","[6]; Y433F+/- + BDNF, distance from soma 65 µm",2.5625
same,"e6f Sholl profile, mean","[6]; Y433F+/- + BDNF, distance from soma 70 µm",2.5
same,"e6f Sholl profile, mean","[6]; Y433F+/- + BDNF, distance from soma 75 µm",1.875
same,"e6f Sholl profile, mean","[6]; Y433F+/- + BDNF, distance from soma 80 µm",2
same,"e6f Sholl profile, mean","[6]; Y433F+/- + BDNF, distance from soma 85 µm",1.625
same,"e6f Sholl profile, mean","[6]; Y433F+/- + BDNF, distance from soma 90 µm",1.4375
same,"e6f Sholl profile, mean","[6]; Y433F+/- + BDNF, distance from soma 95 µm",1.75
same,"e6f Sholl profile, mean","[6]; Y433F+/- + BDNF, distance from soma 100 µm",1.3125
same,"e6e group mean (dendritogenesis, Sholl analysis)","[6]; Y433F+/- neuronal cultures, n=16",87.56
same,e6e Mean Diff. (Veh. minus BDNF),[6]; Y433F+/-:Veh. vs. Y433F+/-:BDNF,-34.03
same,dendritic arbor complexity,[6]; cultures from WT mice,increases dendritic arbor complexity
same,dendritic arbor complexity,[6]; cultures from Y433F^+/− mice,increased dendritic arbor complexity
B1,binding result,[7],binds
